Source: publication PMC3825534 (Journal of Cancer Research and Clinical Oncology, 2013)
Blank lines part the entries; values can stand above or below the molecule they belong to.

Assays:
[1] = test system: protein kinases including Bcr–Abl; parameters: method as in Park et al. [2012]; settings: ref Park et al. [2012]; cited from earlier work
[2] = test system: colon cancer cell lines RKO and HCT116; assay: FMCA primary screening at 10 μM; format: cell-based, human; settings: 10 μM drug concentration; both cell lines; hit criterion SI <40 %
Procedure: For primary screening, the colon cancer cell lines HCT 116 and RKO, obtained from American Type Culture Collection (ATCC; Rockville, MD, USA), were cultured in McCoy’s 5a medium supplemented with 10 % heat-inactivated fetal bovine serum, 2 mM L-glutamine, 100 μg/ml streptomycin and 100 U/ml penicillin (all from Sigma-Aldrich St. Louis, MO, USA).
The Pharmakon 1600 library (Microsource Inc, MO, USA) consists of 1,600 annotated compounds previously used in the clinical setting. The library was delivered in […] each containing 80 compounds at a concentration of 10 mM dissolved in DMSO. For the primary screening, aliquots of the DMSO solutions were transferred to 384-well Labcyte source plates (Labcyte Inc, CA, USA) using a Biomek 2000 and stored at room temperature in containers under nitrogen atmosphere. These source plates were subsequently used to deliver 10 μM (final concentration) of each drug to 384-well screening plates using a acoustic dispensing Echo 550 instrument equipped with Labcytes Access robotics (Labcyte).
(§1) The fluorometric microculture cytotoxicity assay (FMCA), described in detail previously (Lindhagen et al. [2008]), was used for measurement of the cytotoxic effect of library compounds and the established standard drugs. The FMCA is based on measurement of fluorescence generated from hydrolysis of fluorescein diacetate (FDA) to fluorescein by cells with intact plasma membranes. Cells were seeded in 384-well plates using the pipetting robot Precision 2000 (Bio-Tek Instruments Inc, Winooski, VT) and cultured over night before drugs were added by the Echo 550 system. […] Results are expressed as survival index (SI), defined as fluorescence of experimental wells in per cent of unexposed control wells with blank values subtracted.
Screening data were exported to Vortex (Dotmatics Inc, UK) software for analysis. […] Structural similarity to other compounds in the library was calculated based on a structural fingerprint consisting of chemical fragments located within the compound as computed by Vortex. […]

[3] = biological target: panel of 97 kinases; assay: KINOMEscan binding assay, whole panel; settings: for kinase binding: 10 µM, panel of 97 kinases; for Interactions Mapped / S-Score(35): 10 μM; for Interactions Mapped: 97 Assays Tested; for S-Score(35): number of non-mutant kinases with POC <35/number of non-mutant kinases tested
Procedure: (§2) The binding affinities of ABZ and MBZ were tested at 10 μM in a high-throughput binding assay (KINOMEscan, Discoverx, CA, USA) against a panel of 97 kinases tagged with DNA (Davis et al. [2011]). Compounds that bind the kinase active site and directly or indirectly prevent kinase binding to an immobilized ligand will reduce the amount of kinase captured on solid support. […] Hits are identified by measuring the amount of kinase captured in test versus control samples by using a quantitative PCR method that detects the associated DNA label (http://www.discoverx.com/tools-resources/publications-references). Results are presented as percent of control (POC). Selectivity score (S-score) is a quantitative measure of compound selectivity. S(35) is calculated as number of non-mutant kinases with POC <35/number of non-mutant kinases tested. Binding constants were determined with the same method using 11-point threefold serial dilutions of the compound. Curves were fitted using a nonlinear least square fit with the Levenberg–Marquardt algorithm (Davis et al. [2011]).

[4] = test system: colon cancer cell lines (HCT 116, RKO, HT29, HT-8 and SW626); assay: FMCA concentration-response, colon cancer cell lines; format: cell-based; settings: Homo sapiens; all 5 colon cancer cell lines; 72 h FMCA
Procedure: The colon cancer cell lines HT29, HT-8 and SW626 and the normal phenotype non-malignant epithelial MCF 10A, renal RPTEC/TERT1 and hepatocyte NeHepLxHT cell lines were used for validation experiments. These cell lines were all obtained from ATCC and cultured according to the protocols provided by the supplier. All the cell lines were cultured at 37 °C in a humidified atmosphere containing 5 % CO2.
For dose–response studies, Labcyte source plates and the Echo dispenser were used in a similar manner to deliver different concentrations of each drug to destination plates using on board software protocols (Labcyte).
as §1, with “membranes.” for “membranes. Cells were seeded in 384-well plates using the pipetting robot Precision 2000 (Bio-Tek Instruments Inc, Winooski, VT) and cultured over night before drugs were added by the Echo 550 system.”
Concentration–response data of screening hits and standard agents were analyzed using the software GraphPad Prism4 (GraphPad Software Inc., San Diego, CA, USA). […]

[5] = biological target: T1, KIT (Homo sapiens, UniProt P10721); assay: KINOMEscan binding assay
T1 construct: purchased Discoverx (KINOMEscan service)
Procedure: as §2

[6] = biological target: T2, ABL1 phosphorylated (Homo sapiens, UniProt P00519); assay: KINOMEscan binding assay
T2 construct: purchased Discoverx (KINOMEscan service)
Procedure: as §2

[7] = biological target: T3, JNK3 (Homo sapiens, UniProt P53779); assay: KINOMEscan binding assay
T3 construct: purchased Discoverx (KINOMEscan service)
Procedure: as §2

[8] = biological target: T4, PDGFRA (Homo sapiens, UniProt P16234); assay: KINOMEscan binding assay
T4 construct: purchased Discoverx (KINOMEscan service)
Procedure: as §2

[9] = biological target: T5, PDGFRB (Homo sapiens, UniProt P09619); assay: KINOMEscan binding assay
T5 construct: purchased Discoverx (KINOMEscan service)
Procedure: as §2

[10] = biological target: T6, ABL1(E255K) phosphorylated (Homo sapiens, UniProt P00519, E255K); assay: KINOMEscan binding assay
T6 construct: purchased Discoverx (KINOMEscan service)
Procedure: as §2

[11] = biological target: T7, BRAF (Homo sapiens, UniProt P15056); assay: KINOMEscan binding assay
T7 construct: purchased Discoverx (KINOMEscan service)
Procedure: as §2

[12] = biological target: T8, ABL1 nonphosphorylated (Homo sapiens, UniProt P00519); assay: KINOMEscan binding assay
T8 construct: purchased Discoverx (KINOMEscan service)
Procedure: as §2

[13] = biological target: T9, ABL1(T315I) phosphorylated (Homo sapiens, UniProt P00519, T315I); assay: KINOMEscan binding assay
T9 construct: purchased Discoverx (KINOMEscan service)
Procedure: as §2

[14] = biological target: T10, BRAF(V600E) (Homo sapiens, UniProt P15056, V600E); assay: KINOMEscan binding assay
T10 construct: purchased Discoverx (KINOMEscan service)
Procedure: as §2

[15] = test system: NCI 60 cell line panel; assay: NCI 60 growth inhibitory screen data mining (Cellminer); format: cell-based
Procedure: Analysis of data from the National Cancer Institute growth inhibitory screen in 60 cell lines (NCI 60 GI 50 data) was performed with the help by the NCI Cellminer database (http://discover.nci.nih.gov/cellminer/). Z scores are determined for each experiment/cell line pair by the subtraction from its intensity by the experiment mean (across the 60 cell lines) and division by the standard deviation of the experiment (across the 60 cell lines). The z score average was then calculated as the mean across all experiments that passed quality control criteria. The z score will have a mean of zero and a standard deviation of one.

[16] = test system: NCI 60 cell line panel; parameters: method as in NCI Cellminer database; settings: NCI 60 panel; ref NCI Cellminer database; read-out: average GI 50 over the panel; cited from earlier work
[17] = test system: glioma; parameters: method as in Bai et al. [2011]; settings: two orthotopic mouse models of glioma; ref Bai et al. [2011]; cited from earlier work
[18] = test system: refractory metastatic colon cancer; parameters: method as in case report accepted for publication in Acta Oncologica; settings: 100 mg twice daily, ref case report accepted for publication in Acta Oncologica, cited from earlier work
[19] = cited from earlier work
[20] = test system: reactive oxygen species (ROS) generation; parameters: method as in Locatelli et al. [2004]; settings: ref Locatelli et al. [2004]; cited from earlier work
[21] = percent of control at 10 μM, read-out: POC (10 μM)

T7 sequence (P15056 whole entry): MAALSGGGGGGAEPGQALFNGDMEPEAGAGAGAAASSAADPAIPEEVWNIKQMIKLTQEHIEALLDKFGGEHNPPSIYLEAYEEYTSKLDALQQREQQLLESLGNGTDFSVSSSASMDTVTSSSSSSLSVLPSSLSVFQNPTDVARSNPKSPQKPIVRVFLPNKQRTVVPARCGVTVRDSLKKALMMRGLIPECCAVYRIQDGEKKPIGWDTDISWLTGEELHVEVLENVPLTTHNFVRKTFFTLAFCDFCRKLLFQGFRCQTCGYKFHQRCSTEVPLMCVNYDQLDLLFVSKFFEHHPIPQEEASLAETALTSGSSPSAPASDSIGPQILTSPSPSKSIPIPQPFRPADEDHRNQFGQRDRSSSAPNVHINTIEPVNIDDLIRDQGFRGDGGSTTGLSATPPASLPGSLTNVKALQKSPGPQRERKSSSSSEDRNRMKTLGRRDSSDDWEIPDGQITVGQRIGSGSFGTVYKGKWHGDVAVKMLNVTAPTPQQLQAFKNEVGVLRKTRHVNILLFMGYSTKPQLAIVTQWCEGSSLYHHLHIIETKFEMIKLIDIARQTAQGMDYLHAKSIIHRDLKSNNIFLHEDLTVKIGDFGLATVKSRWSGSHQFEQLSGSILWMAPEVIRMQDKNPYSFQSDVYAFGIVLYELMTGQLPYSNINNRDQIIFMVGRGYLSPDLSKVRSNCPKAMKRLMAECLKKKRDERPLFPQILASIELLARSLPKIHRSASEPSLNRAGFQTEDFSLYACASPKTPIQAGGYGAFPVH
T3 sequence (P53779 whole entry): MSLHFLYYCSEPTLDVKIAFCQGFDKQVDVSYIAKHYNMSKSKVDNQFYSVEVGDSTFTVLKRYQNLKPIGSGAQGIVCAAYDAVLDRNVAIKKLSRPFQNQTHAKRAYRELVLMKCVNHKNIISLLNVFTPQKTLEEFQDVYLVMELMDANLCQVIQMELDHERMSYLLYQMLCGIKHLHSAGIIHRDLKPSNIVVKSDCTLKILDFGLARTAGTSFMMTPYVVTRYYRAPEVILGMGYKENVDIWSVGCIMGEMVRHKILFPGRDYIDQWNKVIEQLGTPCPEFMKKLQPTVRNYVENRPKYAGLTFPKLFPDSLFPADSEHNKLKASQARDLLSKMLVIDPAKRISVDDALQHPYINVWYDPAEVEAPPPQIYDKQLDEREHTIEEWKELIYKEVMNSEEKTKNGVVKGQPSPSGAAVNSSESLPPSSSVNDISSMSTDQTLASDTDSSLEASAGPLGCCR
T4 sequence (P16234 24-1089): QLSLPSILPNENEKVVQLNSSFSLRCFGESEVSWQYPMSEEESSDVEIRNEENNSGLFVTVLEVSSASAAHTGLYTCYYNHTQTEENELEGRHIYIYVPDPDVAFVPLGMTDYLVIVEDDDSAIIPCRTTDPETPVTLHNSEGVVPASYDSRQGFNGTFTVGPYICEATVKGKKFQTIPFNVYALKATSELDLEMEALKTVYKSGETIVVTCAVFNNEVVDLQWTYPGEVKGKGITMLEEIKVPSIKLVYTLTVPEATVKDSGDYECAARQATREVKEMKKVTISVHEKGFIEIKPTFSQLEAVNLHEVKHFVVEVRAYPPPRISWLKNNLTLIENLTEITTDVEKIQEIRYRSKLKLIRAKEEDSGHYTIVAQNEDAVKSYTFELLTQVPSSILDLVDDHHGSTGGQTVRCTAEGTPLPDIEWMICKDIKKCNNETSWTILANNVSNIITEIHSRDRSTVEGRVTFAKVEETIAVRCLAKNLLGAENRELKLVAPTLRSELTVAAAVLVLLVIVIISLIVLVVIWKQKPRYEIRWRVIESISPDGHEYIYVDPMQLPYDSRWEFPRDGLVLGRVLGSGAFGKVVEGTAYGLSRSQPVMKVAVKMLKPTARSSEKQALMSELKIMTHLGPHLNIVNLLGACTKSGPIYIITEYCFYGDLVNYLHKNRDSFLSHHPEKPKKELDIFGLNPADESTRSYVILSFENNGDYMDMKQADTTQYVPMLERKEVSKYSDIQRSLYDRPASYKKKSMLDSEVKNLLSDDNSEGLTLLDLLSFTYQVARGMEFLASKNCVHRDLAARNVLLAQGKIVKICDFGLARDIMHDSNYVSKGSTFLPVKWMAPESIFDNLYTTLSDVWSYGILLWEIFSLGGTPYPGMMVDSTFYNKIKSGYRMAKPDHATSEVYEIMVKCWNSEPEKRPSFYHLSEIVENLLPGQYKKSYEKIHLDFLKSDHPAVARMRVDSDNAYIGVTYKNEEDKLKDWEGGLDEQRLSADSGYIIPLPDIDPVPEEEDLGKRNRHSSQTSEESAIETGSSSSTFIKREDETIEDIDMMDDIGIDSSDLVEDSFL
T10 sequence (P15056 whole entry V600E): as the sequence (P15056 whole entry) above, with V600E counted along it
T5 sequence (P09619 33-1106): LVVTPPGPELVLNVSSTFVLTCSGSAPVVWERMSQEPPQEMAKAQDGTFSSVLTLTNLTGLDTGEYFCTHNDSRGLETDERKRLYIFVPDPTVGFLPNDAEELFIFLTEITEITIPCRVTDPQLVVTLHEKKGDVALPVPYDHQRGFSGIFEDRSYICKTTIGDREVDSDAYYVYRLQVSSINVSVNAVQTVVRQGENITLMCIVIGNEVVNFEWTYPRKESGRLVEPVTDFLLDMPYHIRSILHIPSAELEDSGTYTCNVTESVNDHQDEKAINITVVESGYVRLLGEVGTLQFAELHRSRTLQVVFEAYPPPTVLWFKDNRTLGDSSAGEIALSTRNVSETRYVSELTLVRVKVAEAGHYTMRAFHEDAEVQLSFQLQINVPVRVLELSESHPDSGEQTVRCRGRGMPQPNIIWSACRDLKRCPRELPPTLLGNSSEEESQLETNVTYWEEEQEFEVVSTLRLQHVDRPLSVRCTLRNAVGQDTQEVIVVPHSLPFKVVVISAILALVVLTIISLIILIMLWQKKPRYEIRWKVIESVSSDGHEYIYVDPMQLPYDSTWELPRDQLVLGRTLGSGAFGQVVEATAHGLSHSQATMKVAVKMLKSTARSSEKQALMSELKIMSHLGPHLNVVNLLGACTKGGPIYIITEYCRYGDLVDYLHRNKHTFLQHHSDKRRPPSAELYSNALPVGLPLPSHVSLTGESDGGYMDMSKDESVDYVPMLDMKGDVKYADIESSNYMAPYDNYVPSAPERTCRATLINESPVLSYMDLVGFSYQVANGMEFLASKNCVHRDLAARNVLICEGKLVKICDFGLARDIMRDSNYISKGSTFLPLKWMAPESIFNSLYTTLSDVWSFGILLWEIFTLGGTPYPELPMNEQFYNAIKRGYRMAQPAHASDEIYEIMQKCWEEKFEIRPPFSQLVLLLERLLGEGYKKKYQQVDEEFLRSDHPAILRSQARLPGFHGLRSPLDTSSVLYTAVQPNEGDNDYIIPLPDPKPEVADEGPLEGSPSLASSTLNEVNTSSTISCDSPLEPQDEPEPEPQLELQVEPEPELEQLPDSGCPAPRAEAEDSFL
T1 sequence (P10721 26-976): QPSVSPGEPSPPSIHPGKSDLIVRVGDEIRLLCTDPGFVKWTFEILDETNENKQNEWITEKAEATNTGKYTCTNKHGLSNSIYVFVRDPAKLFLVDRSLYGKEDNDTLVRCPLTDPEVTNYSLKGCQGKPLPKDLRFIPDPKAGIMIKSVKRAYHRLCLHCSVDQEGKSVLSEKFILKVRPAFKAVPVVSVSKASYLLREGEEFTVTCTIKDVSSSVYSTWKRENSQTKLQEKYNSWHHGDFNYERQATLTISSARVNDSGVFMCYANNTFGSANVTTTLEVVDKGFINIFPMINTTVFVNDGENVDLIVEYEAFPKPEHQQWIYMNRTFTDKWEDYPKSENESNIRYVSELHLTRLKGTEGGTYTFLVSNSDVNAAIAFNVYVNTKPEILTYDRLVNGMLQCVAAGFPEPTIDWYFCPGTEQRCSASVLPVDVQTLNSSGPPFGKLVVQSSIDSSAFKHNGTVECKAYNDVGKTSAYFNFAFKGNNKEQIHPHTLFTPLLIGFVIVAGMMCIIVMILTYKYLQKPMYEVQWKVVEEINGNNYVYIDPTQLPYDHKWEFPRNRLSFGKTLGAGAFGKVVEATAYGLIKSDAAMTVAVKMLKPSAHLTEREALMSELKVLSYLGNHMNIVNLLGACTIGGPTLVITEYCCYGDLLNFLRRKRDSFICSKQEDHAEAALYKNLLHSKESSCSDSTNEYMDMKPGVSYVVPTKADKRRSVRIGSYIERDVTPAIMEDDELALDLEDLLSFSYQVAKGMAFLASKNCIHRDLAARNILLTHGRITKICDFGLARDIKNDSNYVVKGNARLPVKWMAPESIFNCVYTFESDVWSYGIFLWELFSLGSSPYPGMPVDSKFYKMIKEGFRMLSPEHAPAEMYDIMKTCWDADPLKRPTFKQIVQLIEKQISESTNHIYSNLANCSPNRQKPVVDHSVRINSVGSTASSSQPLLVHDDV

SMILES: COC(=O)Nc1nc2ccc(C(=O)c3cccs3)cc2[nH]1 [nocodazole]
protein kinase inhibition [1]: inhibit several protein kinases including Bcr–Abl

SMILES: COC(=O)Nc1nc2ccc(Sc3ccccc3)cc2[nH]1 [fenbendazole]
survival index (SI) [2]: closely followed

Interactions Mapped [3]: 20 | S-Score(35) [3]: 0.19 | IC50 [4]: < 5000 nM | Kd ([5]; average of two determinations): 460 nM | remaining binding at 10 µM [5, 21]: 2.9% | Kd ([6]; average of two determinations): 130 nM | remaining binding at 10 µM [6, 21]: 0.95% | Kd ([7]; average of two determinations): 420 nM | remaining binding at 10 µM [7, 21]: 5.2% | Kd ([8]; average of two determinations): 340 nM | remaining binding at 10 µM [8, 21]: 15% | Kd ([9]; average of two determinations): 560 nM | remaining binding at 10 µM [9, 21]: 2.3% | Kd ([10]; average of two determinations): 78 nM | remaining binding at 10 µM [10, 21]: 0.3% | Kd ([11]; average of two determinations): 190 nM | remaining binding at 10 µM [11, 21]: 13% | Kd ([12]; average of two determinations): 550 nM | remaining binding at 10 µM [12, 21]: 2.4% | Kd ([13]; average of two determinations): 170 nM | remaining binding at 10 µM [13, 21]: 4.8% | Kd ([14]; average of two determinations): 250 nM | remaining binding at 10 µM [14, 21]: 5.1%
SMILES: COC(=O)Nc1nc2ccc(C(=O)c3ccccc3)cc2[nH]1 [mebendazole]
kinase binding [3]: potent inhibitor of several kinases with high affinity | frequency of sensitive cell lines (positive z scores) ([15]; colon cancer cell lines of NCI 60): 80% | frequency of sensitive cell lines (positive z scores) ([15]; lung cancer subpanel of NCI 60): 25% | frequency of sensitive cell lines (positive z scores) ([15]; renal cancer subpanel of NCI 60): 28% | GI50 [16]: 460 nM | survival [17]: significantly increase survival | computerized tomography evaluation, liver ([18]; after six weeks of therapy): good partial remission | computerized tomography evaluation, metastases in the lungs and lymph nodes ([18]; after six weeks of therapy): near complete remission | adverse effects [18]: no subjective adverse effects at all

SMILES: CCCOc1ccc2nc(NC(=O)OC)[nH]c2c1 [Oxibendazole, oxibendazole]
survival index (SI) [2]: lowest SIs

SMILES: CCCSc1ccc2nc(NC(=O)OC)[nH]c2c1 [albendazole]
survival index (SI) [2]: closely followed | kinase binding [3]: no kinase binding was observed | Interactions Mapped [3]: 1 | S-Score(35) [3]: 0 | dose-limiting toxicity ([19]; dose-escalating phase-I trial, ref Pourgholami et al. [2010]): neutropenia | toxicity in clinical study ([19]; patients with advanced cancers, ref Morris et al. [2001]): neutropenia | ROS generation [20]: strong reactive oxygen species (ROS) generation
